Experimental data reported in patent publication US20260028354A1, “TETRAHYDRONAPHTHALENE DERIVATIVES AS ESTROGEN RECEPTOR DEGRADERS” (REGENT OF THE UNIVERSITY OF MICHIGAN, priority 2022, published 2026).
Read-outs that look alike come from different tables or passages of the source.

Target: ER in MCF-7 cells (Homo sapiens (Human), UniProt P03372)
Assay: In-cell Western (ICW) ER degradation assay in MCF-7 cells
Assay type: cell-based
Settings: for DC50: MCF-7, ER degradation, read-out: MCF7 DC50
Text: In-cell Western (ICW) assays in MCF-7 and T47D cell lines.
Day 3: After 16 hrs of compounds treatment, cells were fixed by 4% PFA and permeabilized with elution buffer (0.1% Triton X-100 in 1% PBS Solution). Subsequently, cells were blocked with Intercept (PBS) Blocking Buffer (Li-COR, Odyssey Blocking Buffer), and were stained with ER (1:500, Cell signaling) primary antibody for overnight at cold room.
Day 4: Remove the buffer, add IRDye 800CW Goat anti-Rabbit IgG Secondary Antibody (1:2000) and CellTag 700 Stain (1:500) in Intercept (PBS) Blocking Buffer. Finally, cell plate is placed in incubator to dry. Image and signal were captured on Odyssey® DLx Imaging System.

[1] = MCF7, MCF-7, maximal ER degradation, 16 hrs treatment, read-out: MCF7 Dmax
[2] = MCF7, read-out: MCF7 Dmax, MCF-7, maximal ER degradation, 16 hrs treatment

Sequence of ER in MCF-7 cells (P03372 whole entry): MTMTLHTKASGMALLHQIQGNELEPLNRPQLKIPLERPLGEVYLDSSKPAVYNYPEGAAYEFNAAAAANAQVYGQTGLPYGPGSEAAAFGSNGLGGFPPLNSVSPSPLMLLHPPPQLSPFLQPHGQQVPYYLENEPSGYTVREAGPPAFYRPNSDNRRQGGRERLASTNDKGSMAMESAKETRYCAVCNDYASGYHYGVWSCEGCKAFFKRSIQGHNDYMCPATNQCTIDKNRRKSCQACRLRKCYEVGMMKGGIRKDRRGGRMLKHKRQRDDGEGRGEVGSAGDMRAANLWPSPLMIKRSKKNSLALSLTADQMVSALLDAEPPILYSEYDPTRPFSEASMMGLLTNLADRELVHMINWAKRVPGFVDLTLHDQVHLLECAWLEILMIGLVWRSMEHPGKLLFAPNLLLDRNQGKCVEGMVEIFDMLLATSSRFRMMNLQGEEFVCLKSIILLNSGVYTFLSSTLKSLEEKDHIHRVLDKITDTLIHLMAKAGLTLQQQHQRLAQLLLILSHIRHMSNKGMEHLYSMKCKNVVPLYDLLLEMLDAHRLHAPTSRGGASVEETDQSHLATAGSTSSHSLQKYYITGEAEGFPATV

SMILES | Dmax [1] | DC50 (16 hrs treatment) | Dmax [2] | MCF7 Dmax (MCF-7, maximal ER degradation, 16 hrs treatment)
O=C1CC[C@H](NC(=O)c2ccc3c(n2)OC[C@H]2CN(CC4CCC5(CC4)CN(c4ccc([C@@H]6c7ccc(O)cc7CC[C@@H]6c6ccccc6)cn4)C5)CCN32)C(=O)N1 (single isomer, unassigned) [Compound A127] | 50 to 75% | 1 to 10 nM |  | 
O=C1CC[C@H](N2Cc3c(ccc4c3OC[C@H]3CN(CC5COC6(CCN(c7ccc([C@H]8c9ccc(O)cc9CC[C@H]8c8ccccc8)cn7)CC6)C5)CCN43)C2=O)C(=O)N1 (single isomer, unassigned) [Compound A137] | < 25% | 1 to 10 nM |  | 
O=C1CC[C@H](N2Cc3c(ccc4c3OC[C@H]3CN(C[C@@H]5COC6(CCN(c7ccc([C@@H]8c9ccc(O)cc9CC[C@@H]8c8ccccc8)cn7)CC6)C5)CCN43)C2=O)C(=O)N1 (single isomer, unassigned) [Compound A138] | 50 to 75% | < 1 nM |  | 
O=C1CC[C@H](N2Cc3c(ccc4c3OC[C@H]3CN(CC5CC6(CCN(c7ncc([C@H]8c9ccc(O)cc9CC[C@H]8c8ccccc8)cn7)CC6)C5)CCN43)C2=O)C(=O)N1 (single isomer, unassigned) [Compound A139] | 50 to 75% | 1 to 10 nM |  | 
O=C1CC[C@H](N2Cc3cc4c(cc3C2=O)OC[C@@H]2CN(CC3CC5(CCN(c6ncc([C@H]7c8ccc(O)cc8CC[C@H]7c7ccccc7)cn6)CC5)C3)CCN42)C(=O)N1 (single isomer, unassigned) [Compound A143] | 50 to 75% | 10 to 100 nM |  | 
O=C1CC[C@H](N2Cc3cc4c(cc3C2=O)OC[C@@H]2CN(CC3CC5(CCN(c6ncc([C@@H]7c8ccc(O)cc8CC[C@@H]7c7ccccc7)cn6)CC5)C3)CCN42)C(=O)N1 (single isomer, unassigned) [Compound A144] | 50 to 75% | 1 to 10 nM |  | 
O=C1CC[C@H](N2Cc3c(ccc4c3OC[C@H]3CN(CC5CC6(CCN(c7ccc([C@@H]8c9ccc(O)cc9CC[C@@H]8c8ccccc8)cc7F)CC6)C5)CCN43)C2=O)C(=O)N1 (single isomer, unassigned) [Compound A145] | 50 to 75% | 10 to 100 nM |  | 
O=C1CC[C@H](N2Cc3cc4c(cc3C2=O)OC[C@@H]2CN(CC3CC5(CCN(c6ccc([C@H]7c8ccc(O)cc8CC[C@H]7c7ccccc7)cc6F)CC5)C3)CCN42)C(=O)N1 (single isomer, unassigned) [Compound A149] | > 75% | 1 to 10 nM |  | 
COc1cc(N2CC3(CCC(CN4CCN5c6ccc7c(c6OC[C@H]5C4)CN([C@H]4CCC(=O)NC4=O)C7=O)CC3)C2)c(F)cc1[C@H]1c2ccc(O)cc2CC[C@H]1c1ccccc1 (single isomer, unassigned) [Compound A165] | 50 to 75% | 10 to 100 nM |  | 
COc1c([C@H]2c3ccc(O)cc3CC[C@H]2c2ccccc2)ccc(N2CCC(CN3CCN4c5cc6c(cc5OC[C@@H]4C3)C(=O)N([C@H]3CCC(=O)NC3=O)C6)CC2)c1F (single isomer, unassigned) [Compound A170] | 25 to 50% | 10 to 100 nM |  | 
COc1c([C@@H]2c3ccc(O)cc3CC[C@@H]2c2ccccc2)ccc(N2CCC(CN3CCN4c5cc6c(cc5OC[C@@H]4C3)C(=O)N([C@H]3CCC(=O)NC3=O)C6)CC2)c1F (single isomer, unassigned) [Compound A171] | > 75% | < 1 nM |  | 
O=C1CC[C@H](N2Cc3cc4c(cc3C2=O)OCC42CCN(CC3CCC4(CC3)CN(c3ccc([C@@H]5c6ccc(O)cc6CC[C@@H]5c5ccccc5)cn3)C4)CC2)C(=O)N1 [Compound A128, (S)-3-(1′-((2-(5-((1S,2S)-6-hydroxy-2-phenyl-1,2,3,4-tetrahydronaphthalen-1-yl)pyridin-2-yl)-2-azaspiro[3.5]nonan-7-yl)methyl)-7-oxo-5,7-dihydro-2H,6H-spiro[furo[2,3-f]isoindole-3,4′-piperidin]-6-yl)piperidine-2,6-dione] |  | 1 to 10 nM | 50 to 75% | 
O=C1CC[C@H](N2Cc3cc4c(cc3C2=O)OC[C@@H]2CN(CC3CCC5(CC3)CN(c3ccc([C@@H]6c7ccc(O)cc7CC[C@@H]6c6ccccc6)cn3)C5)CCN42)C(=O)N1 [Compound A130, (S)-3-((S)-3-((2-(5-((1S,2S)-6-hydroxy-2-phenyl-1,2,3,4-tetrahydronaphthalen-1-yl)pyridin-2-yl)-2-azaspiro[3.5]nonan-7-yl)methyl)-8-oxo-1,2,3,4,4a,5,8,10-octahydro-9H-pyrazino[1′,2′:4,5][1,4]oxazino[2,3-f]isoindol-9-yl)piperidine-2,6-dione] |  | 1 to 10 nM |  | A (“A”: >=75%)
O=C1CC[C@H](N2Cc3c(ccc4c3OCC43CCN(CC4CC5(CCN(c6ccc([C@@H]7c8ccc(O)cc8CC[C@@H]7c7ccccc7)cc6F)CC5)C4)CC3)C2=O)C(=O)N1 [Compound A146, (S)-3-(1′-((7-(2-fluoro-4-((1R,2S)-6-hydroxy-2-phenyl-1,2,3,4-tetrahydronaphthalen-1-yl)phenyl)-7-azaspiro[3.5]nonan-2-yl)methyl)-6-oxo-6,8-dihydro-2H,7H-spiro[furo[2,3-e]isoindole-3,4′-piperidin]-7-yl)piperidine-2,6-dione] |  | 10 to 100 nM | 25 to 50% | 
COc1cc(N2CCC3(CC2)CC(CN2CCC4(CC2)COc2cc5c(cc24)CN([C@H]2CCC(=O)NC2=O)C5=O)C3)ccc1[C@@H]1c2ccc(O)cc2CC[C@@H]1c1ccccc1 [Compound A162, (S)-3-(1′-((7-(4-((1S,2S)-6-hydroxy-2-phenyl-1,2,3,4-tetrahydronaphthalen-1-yl)-3-methoxyphenyl)-7-azaspiro [3.5]nonan-2-yl)methyl)-7-oxo-5,7-dihydro-2H,6H-spiro[furo [2,3-f]isoindole-3,4′-piperidin]-6-yl)piperidine-2,6-dione] |  | < 1 nM | 25 to 50% | 
COc1cc(N2CC3(CCC(CN4CCC5(CC4)COc4cc6c(cc45)CN([C@H]4CCC(=O)NC4=O)C6=O)CC3)C2)c(F)cc1[C@@H]1c2ccc(O)cc2CC[C@@H]1c1ccccc1 [Compound A167, (S)-3-(1′-((2-(2-fluoro-4-((1S, 2S)-6-hydroxy-2-phenyl-1,2,3,4-tetrahydronaphthalen-1-yl)-5-methoxyphenyl)-2-aza-spiro[3.5]nonan-7-yl)methyl)-7-oxo-5,7-dihydro-2H,6H-spiro [furo[2,3-f]isoindole-3,4′-piper-idin]-6-yl)piperidine-2,6-dione] |  | < 1 nM | 50 to 75% | 
COc1cc(N2CC3(CCC(CN4CCC5(CC4)COc4c5ccc5c4CN([C@H]4CCC(=O)NC4=O)C5=O)CC3)C2)c(F)cc1[C@H]1c2ccc(O)cc2CC[C@H]1c1ccccc1 [Compound A168, (S)-3-(1′-((2-(2-fluoro-4-((1R,2R)-6-hydroxy-2-phenyl-1,2,3,4-tetrahydronaphthalen-1-yl)-5-methoxyphenyl)-2-azaspiro[3.5]nonan-7-yl)methyl)-6-oxo-6,8-dihydro-2H,7H-spiro[furo[2,3-e]isoindole-3,4′-piperidin]-7-yl)piperidine-2,6-dione] |  | 1 to 10 nM | 50 to 75% | 
COc1cc(N2CC3(CCC(CN4CCN5c6cc7c(cc6OC[C@@H]5C4)C(=O)N([C@H]4CCC(=O)NC4=O)C7)CC3)C2)c(F)cc1[C@H]1c2ccc(O)cc2CC[C@H]1c1ccccc1 [Compound A169, (S)-3-((S)-3-((2-(2-fluoro-4-((1R,2R)-6-hydroxy-2-phenyl-1,2,3,4-tetrahydronaphthalen-1-yl)-5-methoxyphenyl)-2-azaspiro[3.5]nonan-7-yl)methyl)-8-oxo-1,2,3,4,4a,5,8,10-octahydro-9H-pyrazino[1′,2′: 4,5][1,4]oxazino[2,3-f]isoindol-9-yl)piperidine-2,6-dione] | 25 to 50% | 10 to 100 nM |  | 
COc1cc(N2CC3(CCC(CN4CCC5(CC4)COc4cc6c(cc45)CN([C@H]4CCC(=O)NC4=O)C6=O)CC3)C2)c(F)cc1[C@H]1c2ccc(O)cc2CC[C@H]1c1ccccc1 [Compound A172, (S)-3-(1′-((2-(2-fluoro-4-((1R,2R)-6-hydroxy-2-phenyl-1,2,3,4-tetrahydronaphthalen-1-yl)-5-methoxyphenyl)-2-azaspiro[3.5]nonan-7-yl)methyl)-7-oxo-5,7-dihydro-2H,6H-spiro[furo[2,3-f]isoindole-3,4′-piperidin]-6-yl)piperidine-2,6-dione] |  | 10 to 100 nM | 25 to 50% | 
O=C1CC[C@H](N2Cc3cc4c(cc3C2=O)OCC42CCN(CC3CC4(CCN(c5ccc([C@@H]6c7ccc(O)cc7CC[C@@H]6c6ccccc6)cc5)CC4)C3)CC2)C(=O)N1 [Compound A182, (S)-3-(1′-((7-(4-((1R,2S)-6-hydroxy-2-phenyl-1,2,3,4-tetra-hydronaphthalen-1-yl)phenyl)-7-azaspiro[3.5]nonan-2-yl)-methyl)-7-oxo-5,7-dihydro-2H, 6H-spiro[furo[2,3-f]isoindole-3,4′-piperidin]-6-yl)piperidine-2,6-dione] |  | < 1 nM | 50 to 75% | 
O=C1CC[C@H](N2Cc3c(ccc4c3OCC43CCN(CCCOC4CN(c5ccc([C@@H]6c7ccc(O)cc7CC[C@@H]6c6ccccc6)cc5)C4)CC3)C2=O)C(=O)N1 [Compound A183, (S)-3-(1′-(3-((1-(4-((1R,2S)-6-hydroxy-2-phenyl-1,2,3,4-tetra-hydronaphthalen-1-yl)phenyl)-azetidin-3-yl)oxy)propyl)-6-oxo-6,8-dihydro-2H,7H-spiro [furo[2,3-e]isoindole-3,4′-piperidin]-7-yl)piperidine-2,6-dione] |  | < 1 nM | 50 to 75% | 
